Patent US20220389008A1, “4-QUINOLINONE ANTIBACTERIAL COMPOUNDS” (Janssen Sciences Ireland Unlimited Company, priority 2019, published 2022)
Read-outs that look alike come from different tables or passages of the source.

Columns and labels:
[1] = test system: Mycobacterium tuberculosis strain H37Rv ΔctaE-ΔqcrCAB; test: microbe, parasite or virus in culture; assay type: cell-based; settings: 240 h
[2] = test system: Mitochondrial toxicity (Glu/Gal); test: Mitochondrial toxicity (Glu/Gal) assay; assay type: cell-based; design: key to Score: “negative” means that in the test, it was found to have low mitotoxicity (and hence no mitotoxicity alerts); “positive” means that there were some mitotoxicity alerts; “inconclusive” means that no accurate conclusion could be drawn; settings: for Score: mitotoxicity score; for Δ IC50,glu/IC50,gal: ratio glu/gal
Text: The compounds of the invention/examples may have advantages associated with in vitro potency, kill kinetics (i.e. bactericidal effect) in vitro, PK properties, food effect, safety/toxicity (including liver toxicity, coagulation, 5-LO oxygenase), metabolic stability, Ames II negativity, MNT negativity, aqueous based solubility (and ability to formulate) and/or cardiovascular effect e.g. on animals (e.g. anesthetized guinea pig). The data below that was generated/calculated may be obtained using standard methods/assays, for instance that are available in the literature or which may be performed by a supplier (e.g. Microsomal Stability Assay—Cyprotex, Mitochondrial toxicity (Glu/Gal) assay—Cyprotex, as well as literature CYP cocktail inhibition assays).

[3] = test system: Mycobacterium tuberculosis (strain H37Ra), cyt bd; settings: Mtb H37Ra; for (i) % OCR after cyt bd inhibitor: test compound 10 μM added after Compound X 0.9 μM; for (ii) % OCR after cccp: test compound 10 μM after Compound X 0.9 μM, then CCCP 1 μM
[4] = galactose medium, read-out: IC50, gal
[5] = glucose medium, read-out: IC50, glu

Row | Compound | IC50 [1] [µM] | IC50 [2, 4] [µM] | IC50 [2, 5] [µM] | Score [2] | Δ IC50,glu/IC50,gal [2] | (i) % OCR after cyt bd inhibitor [3] | (ii) % OCR after cccp [3]
1 | Cc1c(-c2nc3ccc(-c4ccc(OC(F)(F)F)c(F)c4)cn3n2)[nH]c2ccccc2c1=O [Compound 1] | 1.63 | 19.8 | 100 | positive | [x]5.06 | 26.9% | 35.1%
2 | Cc1c(-c2nc3ccc(-c4ccc(OC(F)(F)F)cc4)cn3n2)[nH]c2ccc(F)cc2c1=O [Compound 3] |  |  |  |  |  | 28.75% | 38.75%
3 | Cc1c(-c2nc3ccc(CN4CCC(C(F)(F)F)CC4)cn3n2)[nH]c2ccccc2c1=O [Compound 8] | 3.7 | 180 | 163 | negative | [x]0.91 | 82.67% | 59.43%
4 | Cc1c(-c2nc3ccc(N4CCCC(C(F)(F)F)C4)cn3n2)[nH]c2ccccc2c1=O (stereo not drawn) [Compound 9] | 1.31 |  |  |  |  | 58.71% | 62.22%
5 | Cc1c(-c2nc3ccc(-c4ccc(F)c(F)c4)cn3n2)[nH]c2ccccc2c1=O [Compound 10] |  |  |  |  |  | 43.4% | 63.9%
6 | Cc1c(-c2nc3ccc(-c4ccc(C(F)(F)F)s4)cn3n2)[nH]c2ccccc2c1=O [Compound 11] | 2.6 |  |  |  |  | 62.79% | 69.17%
7 | Cc1c(-c2nc3ccc(N4CCC(OC(F)(F)F)CC4)cn3n2)[nH]c2ccccc2c1=O [Compound 13] | 4.12 | 141 | 200 | negative | [x]1.42 | 61.74% | 83.9%
8 | Cc1c(-c2nc3ccc(-c4cc(C(F)(F)F)nn4C)cn3n2)[nH]c2ccccc2c1=O [Compound 15] | 57 | 200 | 44.3 | negative | [x]0.22 | 91.58% | 94.75%
9 | Cc1c(-c2nc3ccc(N4CCN(CC(F)(F)F)CC4)cn3n2)[nH]c2ccccc2c1=O [Compound 16] | 1.17 | 200 | 200 | negative | [x]0 | 80.34% | 95.29%
10 | Cc1noc(-c2ccc3nc(-c4[nH]c5ccccc5c(=O)c4C)nn3c2)n1 [Compound 17] | > 5 |  |  |  |  | 98.64% | 97.68%
11 | Cc1c(-c2cn3cc(-c4ccc(OC(F)(F)F)cc4)ccc3n2)[nH]c2ccccc2c1=O [Compound 35] | 2.39 |  |  |  |  | 102.9% | 129.2%
12 | Cc1c(-c2nc3ccc(-c4ccc(F)cc4)cn3n2)[nH]c2ccccc2c1=O [Compound 36] |  |  |  |  |  | 88.6% | 130.6%
13 | Cc1c(-c2nc3ccc(-c4ncc(C(F)(F)F)s4)cn3n2)[nH]c2ccccc2c1=O [Compound 37] |  |  |  |  |  | 93.8% | 132.68%
14 | Cc1c(-c2nc3ccc(-c4nc(C(F)(F)F)ns4)cn3n2)[nH]c2ccccc2c1=O [Compound 38] | 4.88 |  |  |  |  | 95.63% | 132.88%
15 | Cc1c(-c2nc3ccc(N4CCC(C(F)(F)F)CC4)cn3n2)[nH]c2ccccc2c1=O [Compound 47] |  |  |  |  |  | 99.34% | 141.23%
16 | Cc1c(-c2nc3ccc(-c4nc(C(F)(F)F)nn4C)cn3n2)[nH]c2ccccc2c1=O [Compound 49] | > 50 |  |  |  |  | 101.3% | 143.58%
17 | CNC(=O)c1c(-c2nc3ccc(-c4ccc(OC(F)(F)F)cc4)cn3n2)[nH]c2ccccc2c1=O [Compound 50] |  | 86.5 | 100 | negative | [x]1.16 | 114.33% | 144.07%

Row | Compound | IC50 [1] [µM] | IC50 [2, 4] [µM] | IC50 [2, 5] [µM] | Score [2] | Δ IC50,glu/IC50,gal [2] | (i) % OCR after cyt bd inhibitor [3] | (ii) % OCR after cccp [3]
18 | Cc1c(-c2nc3ccc(N4CCOCC4)cn3n2)[nH]c2ccccc2c1=O [Compound 54] | 5.94 |  |  |  |  |  | 
19 | Cc1c(-c2nc3ccc(-c4nnc(C(F)(F)F)s4)cn3n2)[nH]c2ccccc2c1=O [Compound 59] |  |  |  |  |  | 107.31% | 154.34%
20 | Cc1c(-c2nc3ccc(-c4ccc(F)nc4)cn3n2)[nH]c2ccccc2c1=O [Compound 61] |  |  |  |  |  | 108% | 155.2%
21 | Cc1c(-c2nc3ccc(-c4ccc(OC(F)(F)F)cc4)cn3n2)[nH]c2c(F)cc(F)cc2c1=O [Compound 64] |  |  |  |  |  | 109.65% | 158.95%
22 | COc1cc2[nH]c(-c3nc4ccc(-c5ccc(OC(F)(F)F)cc5)cn4n3)c(C)c(=O)c2cc1Cl [Compound 69] |  |  |  |  |  | 150.98% | 165.1%
23 | Cc1csc(-c2ccc3nc(-c4[nH]c5ccccc5c(=O)c4C)nn3c2)n1 [Compound 71] | > 10 |  |  |  |  | 95.71% | 167.55%
24 | Cc1c(-c2nc3ccc(-c4cn(C)nn4)cn3n2)[nH]c2ccccc2c1=O [Compound 76] | > 5 |  |  |  |  | 111.72% | 175.05%
25 | COc1cc2c(=O)c(C)c(-c3nc4ccc(-c5ccc(OC(F)(F)F)cc5)cn4n3)[nH]c2cc1Cl [Compound 78] |  |  |  |  |  | 135.74% | 178.3%
26 | Cc1c(-c2nc3ccc(-c4cc(F)cc(F)c4)cn3n2)[nH]c2ccccc2c1=O [Compound 88] | 5.35 |  |  |  |  |  | 76%
27 | COc1cccc(-c2ccc3nc(-c4[nH]c5ccccc5c(=O)c4C)nn3c2)c1 [Compound 89] | 0.574 |  |  |  |  | 55,82% | 62,29%
28 | Cc1ccc(-c2ccc3nc(-c4[nH]c5ccccc5c(=O)c4C)nn3c2)o1 [Compound 91] | 1.74 |  |  |  |  | 49,11% | 56,23%
29 | COc1ccc(-c2ccc3nc(-c4[nH]c5ccccc5c(=O)c4C)nn3c2)cc1F [Compound 98] | 1.98 |  |  |  |  | 54,17% | 73,86%
30 | Cc1c(-c2nc3ccc(-c4cccc(C(F)F)c4)cn3n2)[nH]c2ccccc2c1=O [Compound 107] | 3.32 |  |  |  |  | 58,92% | 76,98%
31 | Cc1c(-c2nc3ccc(-c4cccc(CC(F)F)c4)cn3n2)[nH]c2ccccc2c1=O [Compound 112] | 1.85 |  |  |  |  | 31,36% | 38,59%
32 | Cc1c(-c2nc3ccc(-c4ccnn4C)cn3n2)[nH]c2ccccc2c1=O [Compound 116] | 4.59 |  |  |  |  | 72,01% | 85,87%
33 | C/C=C(\C=C/C1=NC(c2[nH]c3ccccc3c(=O)c2C)=NC(CC)C1)c1ccc(OC)c(OC)c1 (stereo not drawn) [Compound 120] | 0.697 |  |  |  |  | 59,83% | 89,24%
34 | Cc1c(-c2nc3ccc(-c4ccc(C(F)(F)F)c(F)c4)cn3n2)[nH]c2ccccc2c1=O [Compound 123] | 4.14 |  |  |  |  | 50,75% | 
